Data reported in patent US11292791B2 (priority 2017, dated 2022).

The molecules below were run against BRD4 (Homo sapiens (Human), UniProt O60885). Conditions: read-out: BRD4 IC50 (μM gmean).

Row | SMILES | IC50
1 | COC(=O)N1c2ccc3c(nc(C[C@@H](C)c4ccccc4)n3C)c2CC[C@@H]1C [Example 1, methyl (S)-3,7-dimethyl-2-((R)-2-phenylpropyl)-3,7,8,9-tetrahydro-6H-imidazo[4,5-f]quinoline-6-carboxylate] | 1 to 1000 µM
2 | COC(=O)N1c2ccc3c(nc(C[C@H](C)c4ccccc4)n3C)c2CC[C@@H]1C [Example 2, methyl (S)-3,7-dimethyl-2-((S)-2-phenylpropyl)-3,7,8,9-tetrahydro-6H-imidazo[4,5-f]quinoline-6-carboxylate] | 1 to 1000 µM
3 | COC(=O)N1c2ccc3[nH]c(CCc4ccccc4)nc3c2CC[C@@H]1C [Example 7, methyl (S)-7-methyl-2-phenethyl-3,7,8,9-tetrahydro-6H-imidazo[4,5-f]quinoline-6-carboxylate] | 1 to 1000 µM
4 | COC(=O)N1c2ccc3[nH]c(Cc4ccccc4)nc3c2CC[C@@H]1C [Example 9] | 1 to 1000 µM
5 | COC(=O)N1c2ccc3c(nc(CCc4ccccc4)n3C)c2CC[C@@H]1C [Example 10] | 1 to 1000 µM
6 | COC(=O)N1c2ccc3c(nc(CCn4cccn4)n3C)c2CC[C@@H]1C [Example 11] | 1 to 1000 µM
7 | COC(=O)N1c2ccc3[nH]c(CCc4ccccn4)nc3c2CC[C@@H]1C [Example 12] | 1 to 1000 µM
8 | COC(=O)N1c2ccc3c(nc(CCc4cccnc4)n3C)c2CC[C@@H]1C [Example 13] | 1 to 1000 µM
9 | COC(=O)N1c2ccc3c(nc(CCc4ccncc4)n3C)c2CC[C@@H]1C [Example 14] | 1 to 1000 µM
10 | COC(=O)N1c2ccc3c(nc(CCn4ccccc4=O)n3C)c2CC[C@@H]1C [Example 15] | 1 to 1000 µM
11 | COC(=O)N1c2ccc3c(nc(Cc4ccccc4)n3[C@H]3C[C@@H](C(=O)O)C3)c2CC[C@@H]1C [Example 20] | 1 to 1000 µM
12 | COC(=O)N1c2ccc3c(nc(Cc4ccccc4)n3[C@H]3C[C@H](C(=O)O)C3)c2CC[C@@H]1C [Example 21] | 1 to 1000 µM
13 | COC(=O)N1c2ccc3c(nc(Cc4ccccc4)n3C34CCC(C(=O)O)(CC3)C4)c2CC[C@@H]1C [Example 24] | 1 to 1000 µM
14 | COC(=O)N1c2ccc3c(nc(Cc4ccccc4)n3[C@H]3CC[C@](C)(C(=O)O)CC3)c2CC[C@@H]1C [Example 25] | 1 to 1000 µM
15 | COC(=O)N1c2ccc3c(nc(Cc4ccccc4)n3[C@H]3CC[C@@](C)(C(=O)O)CC3)c2CC[C@@H]1C [Example 26] | 1 to 1000 µM
16 | COC(=O)N1c2ccc3c(nc(Cc4ccc(OC)cc4)n3[C@H]3CC[C@H](C(=O)O)CC3)c2CC[C@@H]1C [Example 27] | 1 to 1000 µM
17 | COC(=O)N1c2ccc3c(nc(Cc4ccc(OC)c(F)c4)n3[C@H]3CC[C@H](C(=O)O)CC3)c2CC[C@@H]1C [Example 28] | 1 to 1000 µM
18 | COC(=O)N1c2ccc3c(nc(CCn4cccn4)n3[C@H]3CC[C@H](C(=O)O)CC3)c2CC[C@@H]1C [Example 31] | 1 to 1000 µM
19 | COC(=O)N1c2ccc3c(nc(CCn4nccn4)n3[C@H]3CC[C@H](C(=O)O)CC3)c2CC[C@@H]1C [Example 32] | 1 to 1000 µM
20 | COC(=O)N1c2ccc3c(nc(CCc4cnc(C)o4)n3[C@H]3CC[C@H](C(=O)O)CC3)c2CC[C@@H]1C [Example 33] | 1 to 1000 µM

Row | SMILES | IC50
21 | COC(=O)N1c2ccc3c(nc(CCc4cnn(C)c4)n3[C@H]3CC[C@H](C(=O)O)CC3)c2CC[C@@H]1C [Example 34] | 1 to 1000 µM
22 | COC(=O)N1c2ccc3c(nc(CCc4ncc(C)o4)n3[C@H]3CC[C@H](C(=O)O)CC3)c2CC[C@@H]1C [Example 35] | 1 to 1000 µM
23 | COC(=O)N1c2ccc3c(nc(CCc4nc(C)co4)n3[C@H]3CC[C@H](C(=O)O)CC3)c2CC[C@@H]1C [Example 36] | 1 to 1000 µM
24 | COC(=O)N1c2ccc3c(nc(CCc4cc(C)no4)n3[C@H]3CC[C@H](C(=O)O)CC3)c2CC[C@@H]1C [Example 37] | 1 to 1000 µM
25 | COC(=O)N1c2ccc3c(nc(CCc4nnc(C)o4)n3[C@H]3CC[C@H](C(=O)O)CC3)c2CC[C@@H]1C [Example 38] | 1 to 1000 µM
26 | COC(=O)N1c2ccc3c(nc(CCn4ccc(C)n4)n3[C@H]3CC[C@H](C(=O)O)CC3)c2CC[C@@H]1C [Example 39] | 1 to 1000 µM
27 | COC(=O)N1c2ccc3c(nc(CCn4cc(Cl)cn4)n3[C@H]3CC[C@H](C(=O)O)CC3)c2CC[C@@H]1C [Example 41] | 1 to 1000 µM
28 | COC(=O)N1c2ccc3c(nc(CCc4nc(C)no4)n3[C@H]3CC[C@H](C(=O)O)CC3)c2CC[C@@H]1C [Example 42] | 1 to 1000 µM
29 | COC(=O)N1c2ccc3c(nc(Cc4ccccc4)n3-c3ccc(C(=O)O)cc3)c2CC[C@@H]1C [Example 43] | 1 to 1000 µM
30 | COC(=O)N1c2ccc3c(nc(Cc4ccccc4)n3-c3cccc(C(=O)O)c3)c2CC[C@@H]1C [Example 44] | 1 to 1000 µM
31 | COC(=O)N1c2ccc3c(nc(CCc4ccn(C)n4)n3[C@H]3CC[C@H](C(=O)O)CC3)c2CC[C@@H]1C [Example 45] | 1 to 1000 µM
32 | COC(=O)N1c2ccc3c(nc([C@H](CO)c4ccccc4)n3C3CCOCC3)c2CC[C@@H]1C [Example 46, methyl (7S)-2-[(1R)-2-hydroxy-1-phenylethyl]-7-methyl-3-(oxan-4-yl)-3H,6H,7H,8H,9H-imidazo[4,5-f]quinoline-6-carboxylate] | 1 to 1000 µM
33 | COC(=O)N1c2ccc3c(nc([C@@H](CO)c4ccccc4)n3C3CCOCC3)c2CC[C@@H]1C [Example 47, methyl (7S)-2-[(1S)-2-hydroxy-1-phenylethyl]-7-methyl-3-(oxan-4-yl)-3H,6H,7H,8H,9H-imidazo[4,5-f]quinoline-6-carboxylate] | 1 to 1000 µM
34 | COC(=O)N1c2ccc3c(nc([C@H](C)c4ccccc4)n3[C@H]3CC[C@H](C(=O)O)CC3)c2CC[C@@H]1C [Example 56, trans-4-[(7S)-6-(methoxycarbonyl)-7-methyl-2-[(1R)-1-phenylethyl]-3H,6H,7H,8H,9H-imidazo[4,5-f]quinolin-3-yl]cyclohexane-1-carboxylic Acid] | 1 to 1000 µM
35 | COC(=O)N1c2ccc3c(nc([C@@H](C)c4ccccc4)n3[C@H]3CC[C@H](C(=O)O)CC3)c2CC[C@@H]1C [Example 57, trans-4-[(7S)-6-(methoxycarbonyl)-7-methyl-2-[(1S)-1-phenylethyl]-3H,6H,7H,8H,9H-imidazo[4,5-f]quinolin-3-yl]cyclohexane-1-carboxylic Acid] | 1 to 1000 µM
36 | COC(=O)N1c2ccc3c(nc([C@H](C)c4ccccc4)n3C3CCNCC3)c2CC[C@@H]1C [Example 58, methyl (S)-7-methyl-2-((R)-1-phenylethyl)-3-(piperidin-4-yl)-3,7,8,9-tetrahydro-6H-imidazo[4,5-f]quinoline-6-carboxylate] | 1 to 1000 µM
37 | COC(=O)N1c2ccc3c(nc([C@@H](C)c4ccccc4)n3C3CCNCC3)c2CC[C@@H]1C [Example 59, methyl (S)-7-methyl-2-((S)-1-phenylethyl)-3-(piperidin-4-yl)-3,7,8,9-tetrahydro-6H-imidazo[4,5-f]quinoline-6-carboxylate] | 1 to 1000 µM
38 | COC(=O)N1c2ccc3c(nc(Cc4ccccc4)n3[C@@H]3CC[C@@H](CO)OC3)c2CC[C@@H]1C [Example 66, methyl (S)-2-benzyl-3-((3R,6S)-6-(hydroxymethyl)tetrahydro-2H-pyran-3-yl)-7-methyl-3,7,8,9-tetrahydro-6H-imidazo[4,5-f]quinoline-6-carboxylate] | 1 to 1000 µM
39 | COC(=O)N1c2ccc3c(nc(Cn4ccccc4=O)n3[C@H]3CC[C@H](O)CC3)c2CC[C@@H]1C [Example 71] | 1 to 1000 µM
40 | COC(=O)N1c2ccc3c(nc(Cc4ccccc4)n3[C@@H]3CC[C@@H](C(=O)O)OC3)c2CC[C@@H]1C [Example 72, (2S,5R)-5-((S)-2-benzyl-6-(methoxycarbonyl)-7-methyl-6,7,8,9-tetrahydro-3H-imidazo[4,5-f]quinolin-3-yl)tetrahydro-2H-pyran-2-carboxylic Acid] | 1 to 1000 µM

Row | SMILES | IC50
41 | COC(=O)N1c2ccc3c(nc(CCc4ccccc4)n3C3CC4(CNC4)C3)c2CC[C@@H]1C [Example 81] | 1 to 1000 µM
42 | COC(=O)N1c2ccc3c(nc(Cc4ccccc4)n3C3CC4CCC(C3)N4)c2CC[C@@H]1C (some centres unmarked) [Example 83] | 1 to 1000 µM
43 | COC(=O)N1c2ccc3c(nc(Cc4ccccc4)n3C[C@@H]3CCCNC3)c2CC[C@@H]1C [Example 86] | 1 to 1000 µM
44 | COC(=O)N1c2ccc3c(nc(Cc4ccccc4)n3C[C@H]3CCCNC3)c2CC[C@@H]1C [Example 87] | 1 to 1000 µM
45 | COC(=O)N1c2ccc3c(nc(Cc4ccccc4)n3C3CCNCC3)c2CC[C@@H]1C [Example 90] | 1 to 1000 µM
46 | COC(=O)N1c2ccc3c(nc(Cc4ccccc4)n3CC3CCNCC3)c2CC[C@@H]1C [Example 93] | 1 to 1000 µM
47 | COC(=O)N1c2ccc3c(nc(Cc4ccccc4)n3C3CC4(CNC4)C3)c2CC[C@@H]1C [Example 94] | 1 to 1000 µM
48 | COC(=O)N1c2ccc3c(nc(Cc4ccccc4)n3C3CC4(CCNCC4)C3)c2CC[C@@H]1C [Example 95] | 1 to 1000 µM
49 | COC(=O)N1c2ccc3c(nc(Cc4ccccc4)n3C3CCC4(CC3)CNC4)c2CC[C@@H]1C [Example 96] | 1 to 1000 µM
50 | COC(=O)N1c2ccc3c(nc(Cc4ccccc4)n3CC3CNC3)c2CC[C@@H]1C [Example 97] | 1 to 1000 µM
51 | COC(=O)N1c2ccc3c(nc(Cc4ccccc4)n3C3CC4CNCC4C3)c2CC[C@@H]1C (some centres unmarked) [Example 98] | 1 to 1000 µM
52 | COC(=O)N1c2ccc3c(nc(Cc4cccc(OC(C)C)c4)n3C3CC4(CNC4)C3)c2CC[C@@H]1C [Example 99] | 1 to 1000 µM
53 | COC(=O)N1c2ccc3c(nc(CCc4cccc(OC)c4)n3C3CC4(CNC4)C3)c2CC[C@@H]1C [Example 100] | 1 to 1000 µM
54 | COC(=O)N1c2ccc3c(nc(CCc4cccc(OC(C)C)c4)n3C3CC4(CNC4)C3)c2CC[C@@H]1C [Example 101] | 1 to 1000 µM
55 | COC(=O)N1c2ccc3c(nc(Cc4cccc(F)c4)n3C3CCNCC3)c2CC[C@@H]1C [Example 102] | 1 to 1000 µM
56 | COC(=O)N1c2ccc3c(nc(Cc4ccc(OC)c(F)c4)n3C3CCNCC3)c2CC[C@@H]1C [Example 103] | 1 to 1000 µM
57 | COC(=O)N1c2ccc3c(nc(CCc4ccccc4)n3C3CCNCC3)c2CC[C@@H]1C [Example 104] | 1 to 1000 µM
58 | COC(=O)N1c2ccc3c(nc(Cc4ccc(OC)cc4)n3C3CCNCC3)c2CC[C@@H]1C [Example 107] | 1 to 1000 µM
59 | COC(=O)N1c2ccc3c(nc(Cc4ccc(OC)cc4)n3C3CCC4(CC3)CNC4)c2CC[C@@H]1C [Example 108] | 1 to 1000 µM
